From patent EP2785358B1, “INSULIN-MIMETICS AS THERAPEUTIC ADJUNCTS FOR BONE REGENERATION” (priority 2011, dated 2013)
“And” between values parts separate entries of the source, which are not always exact repeats. Equal values may be shown once. Read-outs that look alike come from different tables or passages of the source. Marks after values point to notes of the source that are not given here.

Key:
[1] = rat, in vivo
Protocol: Doses of ZnCl2 were not based on each animal's body weight, but on a lower theoretically tolerable dose for a 290-gram BB Wistar rat, which would not elicit heavy metal poisoning or behavioral changes. […] A 0.1 ml volume of the ZnCl2 solution was administered locally via a single injection into the marrow space for each dose examined.
However, animals amongst treatment groups were age and sex matched for each experiment.

femur fractures [2] = test system: femur fractures; set-up: Percent Effective Shear Modulus / Percent Effective Shear Stress: scale not given: direction of the effect not stated beside the values; details: for Effective Shear Modulus / Effective Shear Stress / Maximum Torque to Failure / Maximum Torsional Rigidity / Percent Effective Shear Modulus / Percent Effective Shear Stress / Percent Maximum Torque to Failure / Percent maximum torsional rigidity: no carrier, 4 weeks post-fracture; for effective shear stress, times higher than control: four weeks post-fracture
Protocol: Zinc Chloride [(ZnCl2), Sigma Aldrich, St. Louis, MO] mixed with a buffer was injected into the intramedullary canal prior to fracture. The buffer consisted of sodium acetate, sodium chloride methyl hydroxybenzoate, and zinc chloride. Doses of 1.0 mg/kg and 3.0 mg/kg zinc chloride were tested and administered at a volume of 0.1mL.
Fractured and contralateral femora were resected at three and four weeks post-fracture. Femora were cleaned of soft tissue and the intramedullary rod was removed. Samples were wrapped in saline (0.9% NaCl) soaked gauze and stored at -20 °C. Prior to testing, all femora were removed from the freezer and allowed to thaw to room temperature for three to four hours. The proximal and distal ends of the fractured and contralateral femora were embedded in ¾ inch square nuts with Field's Metal, leaving an approximate gauge length of 18 mm (Figure 2). After measuring callus, gauge length and femur dimensions, torsional testing was conducted using a servohydraulics machine (MTS Systems Corp., Eden Prairie, MN) with a 20 Nmm reaction torque cell (Interface, Scottsdale, AZ) and tested to failure at a rate of 2.0 deg/sec. The maximum torque to failure and angle to failure were determined from the force to angular displacement data.
Maximum torque to failure and maximum torsional rigidity are considered extrinsic properties while shear modulus and maximum shear stress are considered intrinsic properties. […] Maximum torsional rigidity is a function of the maximum torque to failure, gauge length (distance of the exposed femur between the embedded proximal and distal end) and angular displacement. Maximum shear stress is a function of the maximum torque to failure, maximum radius within the mid-diaphyseal region and the polar moment of inertia. The polar moment of inertia was calculated by modeling the femur as a hollow ellipse.
In order to compare the biomechanical parameters between different treatment groups, the data was normalized by dividing each fractured femur value by its corresponding intact, contralateral femur value (Figure 2). Normalization was used to minimize biological variability due to differences in age and weight among rats.
Zinc chloride (ZnCl2), Sigma Aldrich, St. Louis, MO, mixed with sterile water at various doses with or without a calcium sulfate carrier, were injected into the intramedullary canal prior to fracture. Doses of ZnCl2 were not based on each animal's body weight, but on a lower theoretically tolerable dose for a 290-gram BB Wistar rat, which would not elicit heavy metal poisoning or behavioral changes. This weight is over 50 grams lower than the average weight of non-diabetic BB Wistar rats at an age of approximately 90 days (the age of investigation in this study).

femur fractures [3] = details: zinc chloride 3.0 mg/kg
Text: The fractured femora were resected at seven days post-fracture, decalcified, dehydrated, embedded in paraffin, and sectioned using standard histological techniques. Sections were stained with Masson's Trichrome (Accustain™ Trichrome Staining kit, Sigma Diagnostics, St. Louis, MO) for histological observation using an Olympus BH2-RFCA microscope (Olympus Optical Co., Ltd., Shinjuku-ku, Tokyo, Japan). Digital images were collected using a Nikon DXM1200F digital camera (Nikon, Tokyo, Japan). Cartilage, new bone, and total callus area were measured from the digital images using Image-Pro Plus software (version 5, Media Cybernetics, Inc., Silver Spring, MD). Total cartilage and new bone area were normalized to total callus area and expressed as the percent area. Two independent reviewers were used to minimize inconsistencies.
This includes dehydration, soaking in Xylenes, and finally pre-embedding in a layer of Polymethylmethacrylate (PMMA). After embedding in pure PMMA and allowed to solidify in a hot water bath, slides were sectioned from the PMMA blocks, polished, and stained with a combination of Stevenel's blue and Van Gieson picro-fuchsin (SVG). Histological images of fracture calluses were obtained using an Olympus SZX12 upright microscope (Olympus Optical Co, LTD, Japan) connected via a CCD camera (Optronics, Goleta, California) to a personal computer and analyzed with the Bioquant software package (Biometrics, Inc, Nashville, TN). Parameters that were compared include a) callus area, b) percent calcified tissue area, and c) percent cartilage area. Limitations of this procedure include production of slides with high thicknesses, due to the difficulties associated with sectioning PMMA. This limits the number of possible sections that may be cut for staining in addition to analysis of cellular morphology, due to overlapping layers of cells.

femur fractures [4] = details: no carrier
Protocol: Under the same anesthesia as described above, the rats were positioned prone and lateral and anteroposterior (AP) radiographs of their femurs were obtained. […] Exposures were for 30 seconds at 55 kVp. Magnified radiographs were obtained of resected femurs. Qualitative analysis was performed on all radiographic sample at four weeks post-fracture. […] Treatment group averages were computed to estimate healing at 4 weeks post-fracture.

[5] = ZnCl2 0.1 mg/kg local, normalized to intact femur
[6] = ZnCl2 1.0 mg/kg local, normalized to intact femur
[7] = ZnCl2 3.0 mg/kg local, normalized to intact femur, 3 mg/kg
[8] = ZnCl2 3 mg/kg, four weeks, normalized to intact femur, 3 mg/kg
[9] = ZnCl2 6.0 mg/kg local, normalized to intact femur
[10] = ZnCl2 10.0 mg/kg local, normalized to intact femur

[Cl-].[Cl-].[Zn+2] [ZnCl2, Zinc Chloride]
% Weight gain ([1]; 0.1 mg/kg): 15.3±11.5%
Blood Glucose 12 Hours Post-Surgery ([1]; 0.1 mg/kg): 87.0±7.1 ^a mg/dl
% Weight gain ([1]; 1 mg/kg): 11.0±9.4%
Blood Glucose 12 Hours Post-Surgery ([1]; 1 mg/kg): 99.3±3.1 ^b mg/dl
% Weight gain ([1]; 3 mg/kg): 6.9±11.7%
Blood Glucose 12 Hours Post-Surgery ([1]; 3 mg/kg): 105.0±4.4 ^b mg/dl
% Weight gain ([1]; 6 mg/kg): 4.6±2.3%
Blood Glucose 12 Hours Post-Surgery ([1]; 6 mg/kg): 88.0±4.3 ^a mg/dl
% Weight gain ([1]; 10 mg/kg): 4.2±2.0%
Blood Glucose 12 Hours Post-Surgery ([1]; 10 mg/kg): 87. 7±8. 5 ^a mg/dl
Effective Shear Modulus (femur fractures [2]; ZnCl2 0.1 mg/kg local): 1.7×10^3 ± 3.3×10^2 MPa
Effective Shear Stress (femur fractures [2]; ZnCl2 0.1 mg/kg local): 61 ± 14 MPa
Maximum Torque to Failure (femur fractures [2]; ZnCl2 0.1 mg/kg local): 252 ± 13 Nmm
Maximum Torsional Rigidity (femur fractures [2]; ZnCl2 0.1 mg/kg local): 2.1×10^4 ± 4.2×10^3 Nmm^2/rad
Percent Effective Shear Modulus (femur fractures [2]; [5]): 34 ± 4%
Percent Effective Shear Stress (femur fractures [2]; [5]): 33 ± 14%
Percent Maximum Torque to Failure (femur fractures [2]; [5]): 57 ± 12%
Percent maximum torsional rigidity (femur fractures [2]; [5]): 87 ± 14%
Effective Shear Modulus (femur fractures [2]; ZnCl2 1.0 mg/kg local): 9.7×10^2 ± 3.6×10^2 MPa
Effective Shear Stress (femur fractures [2]; ZnCl2 1.0 mg/kg local): 44 ± 15 MPa
Maximum Torque to Failure (femur fractures [2]; ZnCl2 1.0 mg/kg local): 281 ± 86 Nmm
Maximum Torsional Rigidity (femur fractures [2]; ZnCl2 1.0 mg/kg local): 2.2×10^4 ± 2.7×10^3 Nmm^2/rad
Percent Effective Shear Modulus (femur fractures [2]; [6]): 32 ± 15%
Percent Effective Shear Stress (femur fractures [2]; [6]): 18 ± 8%
Percent Maximum Torque to Failure (femur fractures [2]; [6]): 65 ± 29%
Percent maximum torsional rigidity (femur fractures [2]; [6]): 55 ± 14%
effective shear stress, times higher than control (femur fractures [2]; ZnCl2 1.0 mg/kg): 1.6 x
Effective Shear Modulus (femur fractures [2]; ZnCl2 3.0 mg/kg local): 1.3×10^3 ± 6.4×10^2 MPa
Effective Shear Stress (femur fractures [2]; ZnCl2 3.0 mg/kg local): 55 ± 21^∗ MPa
Maximum Torque to Failure (femur fractures [2]; ZnCl2 3.0 mg/kg local): 369 ± 74 Nmm
Maximum Torsional Rigidity (femur fractures [2]; ZnCl2 3.0 mg/kg local): 3.1×10^4 ± 1.1×10^4 Nmm^2/rad
Percent Effective Shear Stress (femur fractures [2]; ZnCl2 3.0 mg/kg local, normalized to intact femur): 27 ± 17%
Percent Effective Shear Modulus (femur fractures [2]; [7]): 39.0% and 36 ± 10^∗ Percent
Percent Maximum Torque to Failure (femur fractures [2]; [7]): 82.0% and 82 ± 25^∗ Percent
Percent maximum torsional rigidity (femur fractures [2]; [7]): 97.0% and 97 ± 55^∗ Percent
effective shear stress, times higher than control (femur fractures [2]; ZnCl2 3.0 mg/kg): 2.2 x
percent effective shear modulus, times higher than control group (femur fractures [2]; [8]): 9.0 x and 8.0 x
percent maximum torque to failure, times higher than control group (femur fractures [2]; [8]): 2.04 x and 2.0 x
percent torsional rigidity, times higher than control group (femur fractures [2]; [8]): 3.85 x and 3.8 x
Effective Shear Modulus (femur fractures [2]; ZnCl2 6.0 mg/kg local): 1.1×10^3 ± 7.5×10^2 MPa
Effective Shear Stress (femur fractures [2]; ZnCl2 6.0 mg/kg local): 32 ± 25^∗ MPa
Maximum Torque to Failure (femur fractures [2]; ZnCl2 6.0 mg/kg local): 276 ± 190 Nmm
Maximum Torsional Rigidity (femur fractures [2]; ZnCl2 6.0 mg/kg local): 2.9×10^4 ± 1.6×10^4 Nmm^2/rad
Percent Effective Shear Modulus (femur fractures [2]; [9]): 18 ± 12%
Percent Effective Shear Stress (femur fractures [2]; [9]): 15 ± 10%
Percent Maximum Torque to Failure (femur fractures [2]; [9]): 38 ± 20%
Percent maximum torsional rigidity (femur fractures [2]; [9]): 62 ± 35%
Percent shear modulus, times greater than untreated saline group (femur fractures [2]; ZnCl2 10.0 mg/kg (high dose), four weeks, normalized to intact femur): 8.8 times
Effective Shear Modulus (femur fractures [2]; ZnCl2 10.0 mg/kg local): 3.0×10^3 ± 1.9×10^3∗ MPa
Effective Shear Stress (femur fractures [2]; ZnCl2 10.0 mg/kg local): 62 ± 30 MPa
Maximum Torque to Failure (femur fractures [2]; ZnCl2 10.0 mg/kg local): 254 ± 36 Nmm
Maximum Torsional Rigidity (femur fractures [2]; ZnCl2 10.0 mg/kg local): 3.6×10^4 ± 2.5×10^4 Nmm^2/rad
Percent Effective Shear Stress (femur fractures [2]; [10]): 27 ±11%
Percent Maximum Torque to Failure (femur fractures [2]; [10]): 41 ± 8%
Percent maximum torsional rigidity (femur fractures [2]; [10]): 73 ± 44%
Percent Effective Shear Modulus (femur fractures [2]; ZnCl2 10.0 mg/kg local, normalized to intact femur, 10 mg/kg): 36.0% and 39 ± 23^∗ Percent
time in which fracture healing resolved (femur fractures [2]; ZnCl2 applied directly to the fracture site, instead of average eight to ten weeks in standard rat femur fracture model): four to five weeks
% Bone (femur fractures [3]; 7 Day): 18.92 ± 5.97 ^∗ %
% Cartilage (femur fractures [3]; 7 Day): 4.64 ± 3.41%
% Bone (femur fractures [3]; 10 Day): 21.31 ± 5.40%
% Cartilage (femur fractures [3]; 10 Day): 12.79 ± 3.02%
% Bone (femur fractures [3]; 21 Day): 24.47 ± 3.53%
% Cartilage (femur fractures [3]; 21 Day): 11.57 ± 5.53%
Radiographic scoring, 4 Weeks Post-Fracture (# of cortices bridged) (femur fractures [4]; ZnCl2 1.0 mg/kg local): 3.0 ± 0.6 (n=3)
Radiographic scoring, 4 Weeks Post-Fracture (# of cortices bridged) (femur fractures [4]; ZnCl2 3.0 mg/kg local): 3.3 ± 0.6^∗ (n=3)
